# Values joined by “and” are separate entries in the source; they are usually repeats but may differ in a detail not shown here. Equal entries are not always repeated.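 Cultured in 96-well plates, cells were exposed to test compound for 48 hours across five concentrations. GI50 = concentration required for 50% inhibition of growth. Definition used: TGI = concentration required for complete inhibition of growth.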
# Tests used:
# Assay in all cases: inhibition of tumour cell growth, NCI panel, 48 h
# KM12 colon = tested on: KM12 colon
# COLO 205 colon = tested on: COLO 205 colon
# SF-295 CNS = tested on: SF-295 CNS
# A549 NSCLC = tested on: A549 NSCLC
# EKVX NSCLC = tested on: EKVX NSCLC
# HCT-116 colon = tested on: HCT-116 colon
# SNB-19 CNS = tested on: SNB-19 CNS
# IGROV1 ovarian = tested on: IGROV1 ovarian
# SK-OV-3 ovarian = tested on: SK-OV-3 ovarian
# NCI-H522 lung = tested on: NCI-H522 lung
structure (smiles),measurement,setting,value
Cc1ccc(NC(=O)CC2C(=O)Nc3ccccc3S2=O)c(C)c1 (stereo unspecified),TGI,KM12 colon,> 100 µM
same,TGI,COLO 205 colon,60.5 µM
same,TGI,SF-295 CNS,29.7 µM
same,TGI,A549 NSCLC,64.8 µM
same,TGI,EKVX NSCLC,> 100 µM
same,TGI,HCT-116 colon,38.3 µM
same,TGI,SNB-19 CNS,30.8 µM
same,TGI,IGROV1 ovarian,42.1 µM
same,TGI,SK-OV-3 ovarian,33.9 µM
same,TGI,NCI-H522 lung,22 µM
CCN(CC)CC[n+]1cc2cc(OC)c(OC)cc2c2ccc3cc4c(cc3c21)OCO4,GI50,KM12 colon,515 nM
same,TGI,KM12 colon,2.46 µM
same,GI50,COLO 205 colon,418 nM
same,TGI,COLO 205 colon,2.48 µM
same,GI50,SF-295 CNS,429 nM
same,TGI,SF-295 CNS,2.36 µM
same,GI50,A549 NSCLC,376 nM
same,TGI,A549 NSCLC,1.84 µM
same,GI50,EKVX NSCLC,967 nM
same,TGI,EKVX NSCLC,4.04 µM
same,GI50,HCT-116 colon,404 nM
same,TGI,HCT-116 colon,1.66 µM
same,GI50,SNB-19 CNS,452 nM
same,TGI,SNB-19 CNS,1.77 µM
same,GI50,IGROV1 ovarian,649 nM
same,TGI,IGROV1 ovarian,2.67 µM
same,GI50,SK-OV-3 ovarian,520 nM
same,TGI,SK-OV-3 ovarian,2.08 µM
same,GI50,NCI-H522 lung,255 nM
same,TGI,NCI-H522 lung,1.05 µM
O=S(=O)(CCCCl)SCCCCl,TGI,KM12 colon,> 100 µM
same,TGI,COLO 205 colon,> 69.2 µM
same,TGI,SF-295 CNS,> 93.4 µM
same,TGI,A549 NSCLC,> 100 µM
same,TGI,EKVX NSCLC,> 100 µM
same,TGI,HCT-116 colon,51.1 µM
same,TGI,SNB-19 CNS,> 100 µM
same,TGI,IGROV1 ovarian,> 67.5 µM
same,TGI,SK-OV-3 ovarian,> 100 µM
same,TGI,NCI-H522 lung,32.6 µM
O=c1ccnc(SCc2ccc(Cl)cc2)[nH]1,TGI,KM12 colon,> 100 µM
same,TGI,COLO 205 colon,> 100 µM
same,TGI,SF-295 CNS,> 100 µM
same,TGI,A549 NSCLC,> 100 µM
same,TGI,EKVX NSCLC,> 100 µM
same,TGI,HCT-116 colon,> 100 µM
same,TGI,SNB-19 CNS,> 100 µM
same,TGI,IGROV1 ovarian,> 100 µM
same,TGI,SK-OV-3 ovarian,> 100 µM
same,TGI,NCI-H522 lung,> 100 µM
N#Cc1nn(-c2cc(=O)[nH]c3ccc(Br)cc23)c(N)c1C#N,GI50,KM12 colon,> 100000 nM
same,TGI,KM12 colon,> 100 µM
same,GI50,COLO 205 colon,> 100000 nM
same,TGI,COLO 205 colon,> 100 µM
same,GI50,SF-295 CNS,> 100000 nM
same,TGI,SF-295 CNS,> 100 µM
same,GI50,A549 NSCLC,> 100000 nM
same,TGI,A549 NSCLC,> 100 µM
same,GI50,EKVX NSCLC,4600 nM
same,TGI,EKVX NSCLC,> 100 µM
same,GI50,HCT-116 colon,> 100000 nM
same,TGI,HCT-116 colon,> 100 µM
same,GI50,SNB-19 CNS,> 100000 nM
same,TGI,SNB-19 CNS,> 100 µM
same,GI50,IGROV1 ovarian,37900 nM
same,TGI,IGROV1 ovarian,> 100 µM
same,GI50,SK-OV-3 ovarian,> 100000 nM
same,TGI,SK-OV-3 ovarian,> 100 µM
same,GI50,NCI-H522 lung,22700 nM
same,TGI,NCI-H522 lung,86.4 µM
Nc1ccc(-c2ccc(-c3nc4cc(Cl)c(Cl)cc4[nH]3)cc2)cc1,GI50,KM12 colon,826 nM
same,GI50,COLO 205 colon,95.3 nM
same,TGI,COLO 205 colon,> 37.7 µM
same,GI50,SF-295 CNS,419 nM
same,GI50,A549 NSCLC,1460 nM
same,TGI,A549 NSCLC,> 100 µM
same,GI50,EKVX NSCLC,11600 nM
same,TGI,EKVX NSCLC,> 100 µM
same,GI50,HCT-116 colon,503 nM
same,TGI,HCT-116 colon,> 100 µM
same,GI50,SNB-19 CNS,23700 nM
same,TGI,SNB-19 CNS,> 100 µM
same,GI50,IGROV1 ovarian,12100 nM
same,TGI,IGROV1 ovarian,> 100 µM
same,GI50,SK-OV-3 ovarian,> 79900 nM
same,TGI,SK-OV-3 ovarian,> 100 µM
same,GI50,NCI-H522 lung,1030 nM
same,TGI,NCI-H522 lung,> 80.9 µM
O=C(O)CCSC(=S)Nc1ccc([N+](=O)[O-])cc1,TGI,KM12 colon,> 100 µM
same,TGI,COLO 205 colon,> 100 µM
same,TGI,SF-295 CNS,> 100 µM
same,TGI,A549 NSCLC,> 100 µM
same,TGI,EKVX NSCLC,> 100 µM
same,TGI,HCT-116 colon,> 100 µM
same,TGI,SNB-19 CNS,> 100 µM
same,TGI,IGROV1 ovarian,> 100 µM
same,TGI,SK-OV-3 ovarian,> 100 µM
same,TGI,NCI-H522 lung,> 68 µM
CC(CN)[C@@H]1CC[C@]2(CO)CC[C@]3(C)[C@H](CC[C@@H]4[C@@]5(C)CCC(N)C(C)(C)[C@@H]5CC[C@]43C)[C@@H]12 (stereo partly specified),GI50,KM12 colon,1740 nM
same,TGI,KM12 colon,3.34 µM
same,GI50,COLO 205 colon,1910 nM
same,TGI,COLO 205 colon,3.68 µM
same,GI50,SF-295 CNS,1740 nM
same,TGI,SF-295 CNS,3.41 µM
same,GI50,A549 NSCLC,1850 nM
same,TGI,A549 NSCLC,3.29 µM
same,GI50,EKVX NSCLC,1730 nM
same,TGI,EKVX NSCLC,3.51 µM
same,GI50,HCT-116 colon,1680 nM
same,TGI,HCT-116 colon,3.59 µM
same,GI50,SNB-19 CNS,1790 nM
same,TGI,SNB-19 CNS,3.29 µM
same,GI50,IGROV1 ovarian,1860 nM
same,TGI,IGROV1 ovarian,3.78 µM
same,GI50,SK-OV-3 ovarian,1860 nM
same,TGI,SK-OV-3 ovarian,3.29 µM
same,GI50,NCI-H522 lung,1810 nM
same,TGI,NCI-H522 lung,3.45 µM
CCCCCC/C=C1\CCC(CN(C)C)C1=O (stereo unspecified),TGI,KM12 colon,6.68 µM
same,TGI,COLO 205 colon,8.4 µM
same,TGI,SF-295 CNS,27 µM
same,TGI,A549 NSCLC,36.9 µM
same,TGI,EKVX NSCLC,42.3 µM
same,TGI,HCT-116 colon,9.55 µM
same,TGI,SNB-19 CNS,30.8 µM
same,TGI,IGROV1 ovarian,26.5 µM
same,TGI,SK-OV-3 ovarian,34.7 µM
same,TGI,NCI-H522 lung,6.28 µM
CC1=CC(=O)c2ccc(C)cc2C1=O,TGI,KM12 colon,19.8 µM
same,TGI,COLO 205 colon,31.1 µM
same,TGI,SF-295 CNS,31.6 µM
same,TGI,A549 NSCLC,36.9 µM
same,TGI,EKVX NSCLC,23.9 µM
same,TGI,HCT-116 colon,15.1 µM
same,TGI,SNB-19 CNS,30 µM
same,TGI,IGROV1 ovarian,30.8 µM
same,TGI,SK-OV-3 ovarian,30.5 µM
same,TGI,NCI-H522 lung,18.5 µM
O=C(Cc1ccccc1)NS(=O)(=O)c1ccccc1,TGI,KM12 colon,> 100 µM
same,TGI,COLO 205 colon,> 100 µM
same,TGI,SF-295 CNS,> 100 µM
same,TGI,A549 NSCLC,> 100 µM
same,TGI,EKVX NSCLC,> 100 µM
same,TGI,HCT-116 colon,> 100 µM
same,TGI,SNB-19 CNS,> 100 µM
same,TGI,IGROV1 ovarian,> 100 µM
same,TGI,SK-OV-3 ovarian,> 100 µM
same,TGI,NCI-H522 lung,> 100 µM
Nc1nc(=Nc2ccccc2)ss1,TGI,KM12 colon,> 100 µM
same,TGI,COLO 205 colon,> 100 µM
same,TGI,SF-295 CNS,> 100 µM
same,TGI,A549 NSCLC,> 100 µM
same,TGI,EKVX NSCLC,> 100 µM
same,TGI,HCT-116 colon,> 100 µM
same,TGI,SNB-19 CNS,> 100 µM
same,TGI,IGROV1 ovarian,> 100 µM
same,TGI,SK-OV-3 ovarian,> 100 µM
same,TGI,NCI-H522 lung,> 100 µM
CC1=Nc2ccccc2C12C(c1ccccc1)C(c1ccccc1)C(=O)N1c3ccccc3CC12 (stereo unspecified),TGI,KM12 colon,> 100 µM
same,TGI,COLO 205 colon,> 100 µM
same,TGI,SF-295 CNS,> 100 µM
same,TGI,A549 NSCLC,> 100 µM
same,TGI,EKVX NSCLC,> 100 µM
same,TGI,HCT-116 colon,> 100 µM
same,TGI,SNB-19 CNS,> 100 µM
same,TGI,IGROV1 ovarian,> 100 µM
same,TGI,SK-OV-3 ovarian,> 100 µM
same,TGI,NCI-H522 lung,> 100 µM
CC(C)c1ccc2nc3ccc(C(=O)NCCN4CCN(c5ccccc5)CC4)cn3c(=O)c2c1,TGI,KM12 colon,> 100 µM
same,TGI,COLO 205 colon,> 100 µM
same,TGI,SF-295 CNS,4.91 µM
same,TGI,A549 NSCLC,> 100 µM
same,TGI,EKVX NSCLC,> 100 µM
same,TGI,HCT-116 colon,> 100 µM
same,TGI,SNB-19 CNS,> 100 µM
same,TGI,IGROV1 ovarian,> 100 µM
same,TGI,SK-OV-3 ovarian,> 100 µM
same,TGI,NCI-H522 lung,> 100 µM
C=C[C@H]1C=Cc2c(OC)cccc2[C@@H]1COP1(=S)NC(C)C(c2ccccc2)O1 (stereo partly specified),TGI,KM12 colon,> 100 µM
same,TGI,COLO 205 colon,> 100 µM
same,TGI,SF-295 CNS,> 100 µM
same,TGI,A549 NSCLC,> 100 µM
same,TGI,EKVX NSCLC,> 100 µM
same,TGI,HCT-116 colon,> 100 µM
same,TGI,SNB-19 CNS,> 100 µM
same,TGI,IGROV1 ovarian,> 100 µM
same,TGI,SK-OV-3 ovarian,> 100 µM
same,TGI,NCI-H522 lung,> 100 µM
CC(C)(C)c1cc(-c2nc3c(F)c(F)c(F)c(F)c3[nH]2)cc(C(C)(C)C)c1O,GI50,KM12 colon,> 100000 nM
same,TGI,KM12 colon,> 100 µM
same,GI50,COLO 205 colon,> 100000 nM
same,TGI,COLO 205 colon,> 100 µM
same,GI50,SF-295 CNS,> 100000 nM
same,TGI,SF-295 CNS,> 100 µM
same,GI50,A549 NSCLC,> 100000 nM
same,TGI,A549 NSCLC,> 100 µM
same,GI50,EKVX NSCLC,> 100000 nM
same,TGI,EKVX NSCLC,> 100 µM
same,GI50,HCT-116 colon,> 100000 nM
same,TGI,HCT-116 colon,> 100 µM
same,GI50,SNB-19 CNS,> 100000 nM
same,TGI,SNB-19 CNS,> 100 µM
same,GI50,IGROV1 ovarian,> 100000 nM
same,TGI,IGROV1 ovarian,> 100 µM
same,GI50,SK-OV-3 ovarian,> 100000 nM
same,TGI,SK-OV-3 ovarian,> 100 µM
same,GI50,NCI-H522 lung,> 100000 nM
same,TGI,NCI-H522 lung,> 100 µM
CCCCCCNCCCNc1c2ccccc2nc2cccc([N+](=O)[O-])c12,TGI,KM12 colon,0.0352 µM and 0.0335 µM
same,TGI,COLO 205 colon,0.0149 µM and 0.0415 µM
same,GI50,SF-295 CNS,26.3 nM
same,TGI,SF-295 CNS,0.059 µM and 0.422 µM
same,TGI,A549 NSCLC,0.113 µM and 0.131 µM
same,GI50,EKVX NSCLC,185 nM
same,TGI,EKVX NSCLC,0.12 µM and 0.812 µM
same,TGI,HCT-116 colon,1.36 µM
same,GI50,SNB-19 CNS,17 nM
same,GI50,IGROV1 ovarian,25.2 nM
same,TGI,IGROV1 ovarian,0.0713 µM and 0.186 µM
same,TGI,SK-OV-3 ovarian,0.278 µM and 0.39 µM
same,TGI,NCI-H522 lung,0.0421 µM
